For this experiment, the target named is Histone deacetylase 2 (Homo sapiens, UniProt Q92769). The experiment in a line: Inhibition of full-length recombinant human C-terminal GST tagged HDAC2 expressed in Sf9 insect cells using aminoluciferin peptide substrate at 100 nM preincubated for 3 hrs followed by substrate addition and measured after 30 mins by HDAC-Glo I/II chemiluminescence assay. The following applies: time 3.5 hrs.
Chain of Histone deacetylase 2 (Q92769 whole entry): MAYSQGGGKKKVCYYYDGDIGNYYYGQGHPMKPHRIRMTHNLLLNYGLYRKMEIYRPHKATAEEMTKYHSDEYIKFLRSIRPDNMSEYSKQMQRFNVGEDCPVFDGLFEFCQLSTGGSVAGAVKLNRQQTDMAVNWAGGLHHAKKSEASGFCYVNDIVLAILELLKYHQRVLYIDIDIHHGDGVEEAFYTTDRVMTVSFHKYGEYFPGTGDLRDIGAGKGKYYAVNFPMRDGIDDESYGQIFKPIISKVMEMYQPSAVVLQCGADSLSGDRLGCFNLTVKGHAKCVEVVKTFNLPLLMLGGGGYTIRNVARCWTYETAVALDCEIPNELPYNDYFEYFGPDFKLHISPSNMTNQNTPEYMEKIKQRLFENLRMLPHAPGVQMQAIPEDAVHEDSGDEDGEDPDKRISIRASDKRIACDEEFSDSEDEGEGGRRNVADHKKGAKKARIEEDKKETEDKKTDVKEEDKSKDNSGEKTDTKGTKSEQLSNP
As for `Nc1ccc(-c2cccs2)cc1NC(=O)c1cccc(-c2cn(-c3ccc(O)cc3)nn2)c1`, the inhibition (commonly the percentage by which the read-out fell short of the control) is 13%. For `Nc1ccc(-c2cccs2)cc1NC(=O)c1cn(CCc2c[nH]c3ccccc23)nn1`, the inhibition came out at 14%. The figure for `Nc1ccc(-c2cccs2)cc1NC(=O)c1cn(-c2ccc(I)cc2)nn1` is 0%; for `Nc1ccc(-c2ccccc2)cc1NC(=O)CCc1cn(CC23CC4CC(CC(C4)C2)C3)nn1` it is 0%. The figure for `COc1ccc(Cn2cc(-c3ccc(C(=O)Nc4cc(-c5cccs5)ccc4N)cc3)nn2)cc1` is 4%; for `Nc1ccc(-c2ccsc2)cc1NC(=O)CCc1cn(/C=C/c2ccccc2)nn1` it is 2%; for `Nc1ccc(-c2cccs2)cc1NC(=O)c1cccc(-c2cn(CCc3cccc([N+](=O)[O-])c3)nn2)c1` it is 4%. As for `Cc1cccc(C)c1NC(=O)Cn1cc(-c2ccc(C(=O)Nc3cc(-c4cccs4)ccc3N)cc2)nn1`, the inhibition was 52%. The figure for `Nc1ccc(-c2ccsc2)cc1NC(=O)CCc1cn(CCc2ccccc2C(F)(F)F)nn1` is 0%; for `Nc1ccc(-c2ccccc2)cc1NC(=O)c1cn(CS(=O)(=O)c2ccccc2)nn1` it is 0%. The figure for `Cc1cccc(CCn2cc(C(=O)Nc3cc(-c4ccc(F)cc4)ccc3N)nn2)c1` is 10%. Take `Nc1ccc(-c2cccs2)cc1NC(=O)c1ccc(-c2cn(Cc3cccc(C(=O)O)c3)nn2)cc1`: the inhibition amounted to 0%. The figure for `Nc1ccc(-c2cccnc2)cc1NC(=O)CCc1cn(CCc2ccsc2)nn1` is 1%. For `Nc1ccc(-c2ccsc2)cc1NC(=O)CCc1cn(CCC2CCCCC2)nn1`, the inhibition is 0%. The figure for `Nc1ccc(-c2cccs2)cc1NC(=O)c1cccc(-c2cn(CCN3CCc4ccccc4C3)nn2)c1` is 20%. The figure for `Nc1ccc(-c2ccsc2)cc1NC(=O)CCc1cn(CCc2ccccc2)nn1` is 43%; for `COc1ccc(-n2cc(CCC(=O)Nc3cc(-c4ccsc4)ccc3N)nn2)cc1` it is 12%; for `COc1ccc(-n2cc(-c3ccc(C(=O)Nc4cc(-c5cccs5)ccc4N)s3)nn2)cc1` it is 5%. The figure for `COc1ccc(Cn2cc(CCC(=O)Nc3cc(-c4ccc(F)cc4)ccc3N)nn2)cc1` is 17%; for `Nc1ccc(-c2ccsc2)cc1NC(=O)CCc1cn(CCc2cccc(C(F)(F)F)c2)nn1` it is 2%. Turning to `Nc1ccc(-c2cccs2)cc1NC(=O)c1ccc(-c2cn(Cc3ccc4ccccc4n3)nn2)s1`, the inhibition was 30%. The figure for `Nc1ccc(-c2cccs2)cc1NC(=O)CCc1cn(CCCCC(=O)O)nn1` is 2%; for `Nc1ccc(-c2cccs2)cc1NC(=O)c1ccc(-c2cn(C[S+]([O-])c3ccccc3)nn2)s1` (centres undefined) it is 60%.

In the case of `Nc1ccc(-c2cccs2)cc1NC(=O)c1cccc(-c2cn(CCc3ccsc3)nn2)c1`, the inhibition was 0%. The figure for `Cc1ccc(CCn2cc(C(=O)Nc3cc(-c4ccccc4)ccc3N)nn2)cc1` is 2%; for `Nc1ccc(-c2ccsc2)cc1NC(=O)c1cn(CCc2ccccc2Cl)nn1` it is 0%.

Turning to `Nc1ccc(-c2cccs2)cc1NC(=O)CCc1cn(CC(=O)c2ccccc2)nn1`, the inhibition amounted to 13%. With `Nc1ccc(-c2ccc(F)cc2)cc1NC(=O)c1cn(Cc2ccc(OC(F)(F)F)cc2)nn1`, the inhibition was 0%. `Cc1ccc(-n2cc(CCC(=O)Nc3cc(-c4cccs4)ccc3N)nn2)cc1C`: the inhibition was 0%. Turning to `Nc1ccc(-c2ccccc2)cc1NC(=O)c1cn(Cc2cc3ccccc3s2)nn1`, the inhibition stood at 0%. Consider `Nc1ccc(-c2cccs2)cc1NC(=O)CCc1cn(CC(=O)Nc2ccc(F)cc2)nn1`, for which the inhibition came out at 30%.

Take `Nc1ccc(-c2cccnc2)cc1NC(=O)CCc1cn(CC(=O)Nc2ccc(F)cc2)nn1`: the inhibition came out at 0%. The figure for `Nc1ccc(-c2ccccc2)cc1NC(=O)c1cn(Cc2ccc(OC(F)(F)F)cc2)nn1` is 0%. The figure for `Nc1ccc(-c2ccsc2)cc1NC(=O)CCc1cn(Cc2cccc3ccccc23)nn1` is 2%.

As to `Nc1ccc(-c2ccccc2)cc1NC(=O)c1cn(CC2CCCCC2)nn1`, the inhibition was 0%. The figure for `Nc1ccc(-c2ccccc2)cc1NC(=O)CCc1cn(CCCc2ccccc2)nn1` is 9%; for `CCc1ccc(Cn2cc(C(=O)Nc3cc(-c4cccs4)ccc3N)nn2)cc1` it is 13%; for `Nc1ccc(-c2cccs2)cc1NC(=O)c1cn(CCN2CCc3ccccc3C2)nn1` it is 18%.

Turning to `Nc1ccc(-c2cccs2)cc1NC(=O)c1cccc(-c2cn(CC(=O)c3ccccc3)nn2)c1`, the inhibition amounted to 7%. The figure for `COc1ccccc1CCn1cc(CCC(=O)Nc2cc(-c3ccc(F)cc3)ccc2N)nn1` is 10%; for `Nc1ccc(-c2cccs2)cc1NC(=O)c1ccc(-c2cn(-c3ccc(Br)cc3)nn2)cc1` it is 0%. In the case of `Nc1ccc(-c2ccsc2)cc1NC(=O)CCc1cn(CCc2cccc(F)c2)nn1`, the inhibition was 21%. The figure for `Nc1ccc(-c2cccs2)cc1NC(=O)c1cccc(-c2cn(CCc3ccc(F)cc3)nn2)c1` is 0%; for `Nc1ccc(-c2ccsc2)cc1NC(=O)c1cn(CCc2ccsc2)nn1` it is 0%; for `Nc1ccc(-c2cccs2)cc1NC(=O)c1cn(CC23CC4CC(CC(C4)C2)C3)nn1` it is 0%. On to `Nc1ccc(-c2cccs2)cc1NC(=O)c1cn(Cc2ccc3ccccc3c2)nn1`, for which the inhibition worked out at 17%. The figure for `Nc1ccc(-c2ccccc2)cc1NC(=O)c1cn(CCc2ccc(C(F)(F)F)cc2)nn1` is 0%; for `Cc1cccc(C)c1NC(=O)Cn1cc(C(=O)Nc2cc(-c3cccs3)ccc2N)nn1` it is 21%. Regarding `Cc1ccc(CCn2cc(-c3ccc(C(=O)Nc4cc(-c5cccs5)ccc4N)cc3)nn2)cc1`, the inhibition is 19%. In the case of `Nc1ccc(-c2cccs2)cc1NC(=O)c1cn(/C=C/c2ccccc2)nn1`, the inhibition was found to be 12%. Take `Cc1cccc(C)c1NC(=O)Cn1cc(-c2ccc(C(=O)Nc3cc(-c4cccs4)ccc3N)s2)nn1`: the inhibition was 48%. The figure for `Nc1ccc(-c2cccs2)cc1NC(=O)c1ccc(-c2cn(CCc3ccc(Cl)cc3)nn2)s1` is 3%. Regarding `Cc1ccc(-n2cc(-c3cccc(C(=O)Nc4cc(-c5cccs5)ccc4N)c3)nn2)cc1C`, the inhibition came out at 5%. The figure for `Nc1ccc(-c2cccs2)cc1NC(=O)c1cn(Cc2ccc3ccccc3n2)nn1` is 12%.

Turning to `Nc1ccc(-c2cccs2)cc1NC(=O)c1ccc(-c2cn(CCc3ccccn3)nn2)s1`, the inhibition came out at 71%. The figure for `Nc1ccc(-c2ccc(F)cc2)cc1NC(=O)c1cn(CCC23CC4CC(CC(C4)C2)C3)nn1` is 2%; for `Nc1ccc(-c2ccc(F)cc2)cc1NC(=O)c1cn(-c2ccc(I)cc2)nn1` it is 7%; for `Nc1ccc(-c2ccccc2)cc1NC(=O)c1cn(CCN2CCOCC2)nn1` it is 0%.

Regarding `Nc1ccc(-c2ccc(F)cc2)cc1NC(=O)c1cn(CC2CCCCC2)nn1`, the inhibition stood at 3%. The figure for `Nc1ccc(-c2ccsc2)cc1NC(=O)c1cn(CCc2ccc([N+](=O)[O-])cc2)nn1` is 0%. With `Nc1ccc(-c2cccs2)cc1NC(=O)c1cccc(-c2cn(Cc3ccc(C(=O)O)cc3)nn2)c1`, the inhibition worked out at 55%.

With `Nc1ccc(-c2ccccc2)cc1NC(=O)c1cn(-c2ccccc2-c2ccccc2)nn1`, the inhibition stood at 0%. The figure for `Nc1ccc(-c2cccs2)cc1NC(=O)c1cccc(-c2cn(CCC3CCCCC3)nn2)c1` is 0%. The figure for `Nc1ccc(-c2cccnc2)cc1NC(=O)CCc1cn(CC23CC4CC(CC(C4)C2)C3)nn1` is 2%; for `Nc1ccc(-c2ccc(F)cc2)cc1NC(=O)CCc1cn(CCc2ccccc2)nn1` it is 37%; for `Nc1ccc(-c2ccc(F)cc2)cc1NC(=O)c1cn(CCc2cccc(F)c2)nn1` it is 0%. For `Nc1ccc(-c2cccs2)cc1NC(=O)c1ccc(-c2cn(-c3ccc([N+](=O)[O-])cc3)nn2)cc1`, the inhibition is 4%. The figure for `Nc1ccc(-c2cccs2)cc1NC(=O)CCc1cn(CCC2CCCC2)nn1` is 0%; for `COc1ccc(CCn2cc(-c3cccc(C(=O)Nc4cc(-c5cccs5)ccc4N)c3)nn2)cc1` it is 1%. The figure for `Nc1ccc(-n2cc(C(=O)Nc3cc(-c4ccc(F)cc4)ccc3N)nn2)cc1` is 42%; for `Nc1ccc(-c2cccnc2)cc1NC(=O)CCc1cn(CCc2cccc(Cl)c2)nn1` it is 30%. The figure for `Nc1ccc(-c2cccs2)cc1NC(=O)CCc1cn(CCc2ccc(C(F)(F)F)cc2)nn1` is 5%; for `Nc1ccc(-c2ccsc2)cc1NC(=O)c1cn(CCC2CCCCC2)nn1` it is 0%; for `Nc1ccc(-c2cccs2)cc1NC(=O)c1cn(CCc2cccc(C(F)(F)F)c2)nn1` it is 0%. For the compound `Nc1ccc(-c2ccc(F)cc2)cc1NC(=O)c1cn(-c2ccc([N+](=O)[O-])cc2)nn1`, the inhibition is 8%. As to `Nc1ccc(-c2cccs2)cc1NC(=O)c1cn(CCc2cccc3ccccc23)nn1`, the inhibition stood at 0%. The figure for `Nc1ccc(-c2ccccc2)cc1NC(=O)c1cn(CCCCCCC(=O)O)nn1` is 0%; for `Nc1ccc(-c2ccc(F)cc2)cc1NC(=O)c1cn(CCc2ccccn2)nn1` it is 16%. Consider `Nc1ccc(-c2ccccc2)cc1NC(=O)CCc1cn(Cc2ccc(OC(F)(F)F)cc2)nn1`, for which the inhibition was 0%.

In the case of `Nc1ccc(-c2ccccc2)cc1NC(=O)c1cn(Cc2ccc3ccccc3n2)nn1`, the inhibition is 6%. The figure for `Nc1ccc(-c2cccs2)cc1NC(=O)c1ccc(-c2cn(CCN3CCc4ccccc4C3)nn2)s1` is 32%. The figure for `Nc1ccc(-c2ccc(F)cc2)cc1NC(=O)c1cn(CCc2ccsc2)nn1` is 1%.

Take `Cc1csc(CCn2cc(CCC(=O)Nc3cc(-c4ccc(F)cc4)ccc3N)nn2)n1`: the inhibition worked out at 37%. In the case of `COc1ccc(CCn2cc(C(=O)Nc3cc(-c4ccccc4)ccc3N)nn2)cc1`, the inhibition was 0%.

The record behind these values is ChEMBL document CHEMBL5390237, “Discovery of Selective Histone Deacetylase 1 and 2 Inhibitors: Screening of a Focused Library Constructed by Click Chemistry, Kinetic Binding Analysis, and Biological Evaluation” (J Med Chem, 2023).
